In ChEMBL document CHEMBL3739376, “Synthesis and biological evaluation of N-(4-phenylthiazol-2-yl)cinnamamide derivatives as novel potential anti-tumor agents” (Medchemcomm, 2015):
Activity calls are given as the source filed them. No cut-off for these calls is given here.

Tests used:
K562 [1] = test: Cytotoxicity against human K562 cells assessed as inhibition of cell proliferation after 96 hrs by MTT assay; assay type: functional, cell-based; conditions: K562, 96 h
[2] = Cytotoxicity against human MV411 cells assessed as inhibition of cell proliferation after 96 hrs by MTT assay; assay type: functional, cell-based; conditions: MV4-11, 96 h
Jurkat [3] = test: Cytotoxicity against human Jurkat cells assessed as inhibition of cell proliferation after 96 hrs by MTT assay; assay type: functional, cell-based
MCF7 = test: Cytotoxicity against human MCF7 cells assessed as inhibition of cell proliferation after 96 hrs by MTT assay; assay type: functional, cell-based; conditions: MCF7, 96 h
MDA-MB-468 = test: Cytotoxicity against human MDA-MB-468 cells assessed as inhibition of cell proliferation after 96 hrs by MTT assay; assay type: functional, cell-based; conditions: MDA-MB-468, 96 h
[4] = Cytotoxicity against human OCI-LY1 cells assessed as inhibition of cell proliferation after 96 hrs by MTT assay; assay type: functional, cell-based; conditions: OCI-Ly1, 96 h
[5] = Cytotoxicity against human Bel7402 cells assessed as inhibition of cell proliferation after 96 hrs by MTT assay; assay type: functional, cell-based; conditions: Bel-7402, 96 h
A549 [6] = test: Cytotoxicity against human A549 cells assessed as inhibition of cell proliferation after 96 hrs by MTT assay; assay type: functional, cell-based; conditions: A549, 96 h
[7] = Cytotoxicity against human LO2 cells assessed as inhibition of cell proliferation after 96 hrs by MTT assay; assay type: cell-based; conditions: L02, 96 h
Vero = test: Cytotoxicity against african green monkey Vero cells assessed as inhibition of cell proliferation after 96 hrs by MTT assay; assay type: cell-based; conditions: Chlorocebus sabaeus
HEK293 = test: Cytotoxicity against HEK293 cells assessed as inhibition of cell proliferation after 96 hrs by MTT assay; assay type: cell-based; conditions: Homo sapiens, HEK293, 96 h
K562 [8] = test: Induction of apoptosis in human K562 cells at 3.3 uM after 48 hrs by propidium iodide staining-based fluorescence microscopic analysis; assay type: functional
A549 [9] = test: Induction of apoptosis in human A549 cells at 3.3 uM after 48 hrs by propidium iodide staining-based fluorescence microscopic analysis; assay type: functional
Jurkat [10] = test: Induction of apoptosis in human Jurkat cells at 3.3 uM after 48 hrs by propidium iodide staining-based fluorescence microscopic analysis; assay type: functional
Bel-7402 [11] = test: Induction of apoptosis in human Bel7402 cells at 3.3 uM after 48 hrs by propidium iodide staining-based fluorescence microscopic analysis; assay type: functional
Bel-7402 [12] = test: Induction of apoptosis in human Bel7402 cells after 48 hrs by propidium iodide staining-based fluorescence microscopic analysis; assay type: functional, cell-based
Bel-7402 [13] = test: Induction of apoptosis in human Bel7402 cells at 0.37 uM after 48 hrs by propidium iodide staining-based fluorescence microscopic analysis; assay type: functional
Bel-7402 [14] = test: Induction of apoptosis in human Bel7402 cells at 1.1 uM after 48 hrs by propidium iodide staining-based fluorescence microscopic analysis; assay type: functional
Bel-7402 [15] = test: Induction of apoptosis in human Bel7402 cells at 10 uM after 48 hrs by propidium iodide staining-based fluorescence microscopic analysis; assay type: functional
Bel-7402 [16] = test: Induction of apoptosis in human Bel7402 cells assessed as condensed nuclei at 0.37 to 10 uM after 48 hrs by […] staining-based fluorescence microscopic analysis; assay type: functional, cell-based

## O=C(/C=C/c1ccc(N2CCOCC2)cc1)Nc1nc(-c2ccc(F)cc2)cs1
K562 [1]
  IC50: 7.3 µM

## Cc1cc(C)c(-c2csc(NC(=O)/C=C/c3ccc(Cl)c(C(F)(F)F)c3)n2)c(C)c1
K562 [1]
  IC50: 3.06 µM

## O=C(/C=C/c1ccc(N2CCOCC2)cc1)Nc1nc(-c2c(F)cc(F)cc2F)cs1
K562 [1]
  IC50: 5.15 µM

## Cc1cc(C)c(-c2csc(NC(=O)/C=C/c3ccc(Br)cc3)n2)c(C)c1
K562 [1]
  IC50: 4.59 µM

## Cc1ccccc1-c1csc(NC(=O)/C=C/c2ccc(N3CCOCC3)cc2)n1
K562 [1]
  IC50: 3.74 µM

## Cc1cccc(-c2csc(NC(=O)/C=C/c3ccc(N4CCOCC4)cc3)n2)c1
K562 [1]
  IC50: 7.51 µM

## Cc1ccc(-c2csc(NC(=O)/C=C/c3ccc(N4CCOCC4)cc3)n2)cc1
K562 [1]
  IC50: > 90 µM

## COc1cc(C)c(-c2csc(NC(=O)/C=C/c3ccc(N4CCOCC4)cc3)n2)c(C)c1
K562 [1]
  IC50: 1 µM
[2]
  IC50: 2.73 µM
Jurkat [3]
  IC50: 1.24 µM
MCF7
  IC50: 1.45 µM
MDA-MB-468
  IC50: > 30 µM
[4]
  IC50: > 30 µM
[5]
  IC50: 9.65 µM
A549 [6]
  IC50: 1.56 µM
[7]
  IC50: > 90 µM
Vero
  IC50: > 90 µM
HEK293
  IC50: > 90 µM

## Cc1cc(C)c(-c2csc(NC(=O)/C=C/c3ccc(C(F)(F)F)cc3)n2)c(C)c1
K562 [1]
  IC50: 0.48 µM
[2]
  IC50: 3.65 µM
Jurkat [3]
  IC50: 1.15 µM
MCF7
  IC50: > 30 µM
MDA-MB-468
  IC50: 1.53 µM
[4]
  IC50: 3.69 µM
[5]
  IC50: 34.1 µM
A549 [6]
  IC50: 0.2 µM
[7]
  IC50: > 90 µM
Vero
  IC50: > 90 µM
HEK293
  IC50: > 90 µM

## Cc1cc(C)c(-c2csc(NC(=O)/C=C/c3ccccc3)n2)c(C)c1
K562 [1]
  IC50: 40.4 µM

## O=C(/C=C/c1ccc(N2CCOCC2)cc1)Nc1nc(-c2ccccc2F)cs1
K562 [1]
  IC50: 4.18 µM

## Cc1cc(C)c(-c2csc(NC(=O)/C=C/c3ccncc3)n2)c(C)c1
K562 [1]
  IC50: 9.39 µM

## O=C(/C=C/c1ccc(N2CCOCC2)cc1)Nc1nc(-c2ccccc2)cs1
K562 [1]
  IC50: 12.6 µM

## COc1ccc(/C=C/C(=O)Nc2nc(-c3c(C)cc(C)cc3C)cs2)cc1
K562 [1]
  IC50: 4.16 µM

## O=C(/C=C/c1ccc(N2CCOCC2)cc1)Nc1nc(-c2cccc(F)c2)cs1
K562 [1]
  IC50: 5.73 µM

## Cc1cc(C)c(-c2csc(NC(=O)/C=C/c3ccc(N4CCOCC4)cc3)n2)c(C)c1
K562 [1]
  IC50: 0.61 µM
[2]
  IC50: 6.42 µM
Jurkat [3]
  IC50: 9.05 µM
MCF7
  IC50: 20 µM
MDA-MB-468
  IC50: > 30 µM
[4]
  IC50: 11.7 µM
[5]
  IC50: 10.6 µM
A549 [6]
  IC50: 4.29 µM
[7]
  IC50: > 90 µM
Vero
  IC50: > 90 µM
HEK293
  IC50: > 90 µM

## Cc1cc(C)cc(-c2csc(NC(=O)/C=C/c3ccc(N4CCOCC4)cc3)n2)c1
K562 [1]
  IC50: > 90 µM

## Cc1ccc(-c2csc(NC(=O)/C=C/c3ccc(N4CCOCC4)cc3)n2)c(C)c1
K562 [1]
  IC50: 5.38 µM

## CC(=O)O[C@H]1C(=O)[C@@]2(C)[C@H]([C@H](OC(=O)c3ccccc3)[C@]3(O)C[C@H](OC(=O)[C@H](O)[C@@H](NC(=O)c4ccccc4)c4ccccc4)C(C)=C1C3(C)C)[C@]1(OC(C)=O)CO[C@@H]1C[C@@H]2O [PACLITAXEL]
K562 [1]
  IC50: 1.26 µM
[2]
  IC50: 0.75 µM
Jurkat [3]
  IC50: 0.69 µM
MDA-MB-468
  IC50: 0.31 µM
[4]
  IC50: 0.18 µM
[5]
  IC50: > 10 µM
A549 [6]
  IC50: 0.74 µM

## Cc1cc(C)c(-c2csc(NC(=O)/C=C/c3ccc([N+](=O)[O-])cc3)n2)c(C)c1
K562 [1]
  IC50: 32.2 µM

## COc1cccc(-c2csc(NC(=O)/C=C/c3ccc(N4CCOCC4)cc3)n2)c1
K562 [1]
  IC50: 25.2 µM

## Cc1cc(C)c(-c2csc(NC(=O)/C=C/c3ccc(C4CC4)cc3)n2)c(C)c1
K562 [1]
  IC50: 0.38 µM
[2]
  IC50: 1.41 µM
Jurkat [3]
  IC50: 1.24 µM
MCF7
  IC50: 7.76 µM
MDA-MB-468
  IC50: 15.7 µM
[4]
  IC50: 1.63 µM
[5]
  IC50: 6.58 µM
A549 [6]
  IC50: 1.17 µM
[7]
  IC50: > 90 µM
Vero
  IC50: > 90 µM
HEK293
  IC50: > 90 µM

## Cc1ccc(/C=C/C(=O)Nc2nc(-c3c(C)cc(C)cc3C)cs2)cc1
K562 [1]
  IC50: 7.88 µM

## Cc1cc(C)c(-c2csc(NC(=O)/C=C/c3ccc(N4CCCCC4)cc3)n2)c(C)c1
K562 [1]
  IC50: 4.06 µM

## Cc1cc(C)c(-c2csc(NC(=O)/C=C/c3ccc(F)cc3)n2)c(C)c1
K562 [1]
  IC50: 14 µM

## COCCOc1ccc(/C=C/C(=O)Nc2nc(-c3c(C)cc(C)cc3C)cs2)cc1
K562 [1]
  IC50: 1.49 µM

## COc1ccc(-c2csc(NC(=O)/C=C/c3ccc(N4CCOCC4)cc3)n2)cc1
K562 [1]
  IC50: 14.6 µM

## CCOc1cc(C)c(-c2csc(NC(=O)/C=C/c3ccc(N4CCOCC4)cc3)n2)c(C)c1
K562 [1]
  IC50: 2.09 µM

## COc1cc(F)c(-c2csc(NC(=O)/C=C/c3ccc(N4CCOCC4)cc3)n2)c(F)c1
K562 [1]
  IC50: 30.3 µM

## CCOc1ccc(/C=C/C(=O)Nc2nc(-c3c(C)cc(C)cc3C)cs2)cc1
K562 [1]
  IC50: 2.48 µM

## Cc1cc(C)c(-c2csc(NC(=O)/C=C/c3ccc(C(C)(C)C)cc3)n2)c(C)c1
K562 [1]
  IC50: 0.18 µM
[2]
  IC50: 0.11 µM
Jurkat [3]
  IC50: 0.035 µM
MCF7
  IC50: > 30 µM
MDA-MB-468
  IC50: > 30 µM
[4]
  IC50: 1.54 µM
[5]
  IC50: 0.74 µM
A549 [6]
  IC50: 0.27 µM
[7]
  IC50: > 90 µM
Vero
  IC50: > 90 µM
HEK293
  IC50: > 90 µM
K562 [8]
  Activity: 21.04%
A549 [9]
  Activity: 23.13%
Jurkat [10]
  Activity: 14.64%
Bel-7402 [11]
  Activity: 48.15%
Bel-7402 [12]
  Activity: Dose-dependent effect
Bel-7402 [13]
  Activity: 5.37%
Bel-7402 [14]
  Activity: 25.37%
Bel-7402 [15]
  Activity: 61.35%
Bel-7402 [16]
  Activity: Active

## COc1cc(/C=C/C(=O)Nc2nc(-c3c(C)cc(C)cc3C)cs2)cc(OC)c1OC
K562 [1]
  IC50: 11.8 µM

## COc1ccccc1-c1csc(NC(=O)/C=C/c2ccc(N3CCOCC3)cc2)n1
K562 [1]
  IC50: > 90 µM
